Here are results for one molecule from patent US4670418A, “Method of using somatostatin as an analgesic or an anesthetic” (CuraMED Pharma GmbH, priority 1984, dated 1987).

Molecules are shown by their SMILES.

Series [1] in a line: intradural or intraspinal injections or infusions, anesthetic effect. Type of series: in vivo.
For series [2] the following is noted: in vivo; cited from earlier work.
The subject of another series is dogs. Description: investigation with dogs, analgesia test according to Cohen (heated plate). It counts as in vivo.
The subject of a further series is humans. Briefly: preliminary experiments with humans, peridural application. Type of series: in vivo.
Another series deals with rats. To be noted: intracerebroventricular infusion; cited from earlier work.
A short description of series [3]: penetration of the dura into the liquor upon peridural application. Type of series: in vivo.
Series [4] has as its system Cancer patients suffering from intolerable pain. Briefly: intraspinal and intraventricular injection and infusion in cancer patients with intolerable pain. To be noted: humans, intraspinal or intraventricular route. It counts as in vivo. How it is done: Cancer patients suffering from intolerable pain in the final stage of post-operative pain were given 250 μg of somatostatin as an injection and thereafter 10 to 50 μg/hour of somatostatin as an infusion, in part via the intraspinal route and in part via the intraventricular route.

For the molecule `C[C@H](N)C(=O)NCC(=O)N[C@H]1CSSC[C@@H](C(=O)O)NC(=O)[C@H](CO)NC(=O)[C@H]([C@@H](C)O)NC(=O)[C@H](Cc2ccccc2)NC(=O)[C@H]([C@@H](C)O)NC(=O)[C@H](CCCCN)NC(=O)[C@H](Cc2c[nH]c3ccccc23)NC(=O)[C@H](Cc2ccccc2)NC(=O)[C@H](Cc2ccccc2)NC(=O)[C@H](CC(N)=O)NC(=O)[C@H](CCCCN)NC1=O` [somatostatin], the anesthetic effects result in series [1] is “have anesthetic effects”. In addition, the half-life – broadly, the time in which the quantity being followed falls by half – in series [2] was 2 to 4 min. In addition, in the series with dogs (dog having a large decubitus), the signs of pain result is listed as “showed no signs of pain”. Further, in the series with dogs (dogs), the “duration of analgesic activity” value is “maintained for several weeks”; the sedation and behavior entry was “had not been put under sedation and showed a balanced behavior”; the side effects result is “No side effects were apparent”. Further, the “period for which heated plate was tolerated” value with dogs (dogs, all animals, heated plate of 60° C., analgesia test according to Cohen) turned out to be 5 s. Further, the analgesic effectiveness entry in the series with humans (peridural application of 125 μg) is on record as “analgesically effective”. The analgesic effectiveness entry in the series on humans (peridural application of 250 μg) was “analgesically effective”. Also, in the series on rats, the analgesic effect result is on record as “a short-term analgesic effect was found”. Moreover, in series [3], the “penetration of the dura” value was “capable of rapidly (and to a high degree) penetrating the dura”. Besides, in series [4] (250 μg injection then 10 to 50 μg/hour infusion), the analgesia result is “marked analgesia, comparable to that of morphine”. In addition, the “tolerability of the infusions” value in series [4] (10 to 50 μg/hour infusion) is “tolerated without any occurring side-effects for a period of over two weeks”.
